Read-outs that look alike come from different tables or passages of the source.
Experiments:
Nalm-6-VR = experiment: IC50 cell-based assay, suspension cells, Nalm-6-VR; details: Leukemia, B-ALL, Vincristine resistant, read-out: IC50 of Compounds in Suspension Cell Types
Procedure: (§1) In one embodiment, the IC50s of the compounds provided herein were determined in cell-based assays using adherent cells. In one embodiment, the activity of the compounds provided herein were determined in a cell-based assay using the triple negative breast cancer cell line MDA-MB-468. In one embodiment, the adherent cells used in the cell-based assays may be a cell type selected from Table 1. In one embodiment, the cell-based assay may be carried out as provided herein. On day 0, cells were seeded at 20,000 cells per well in 100 µL of media into individual wells of a 96-well tissue culture plate. The next day, compounds were diluted to twice the desired final concentration and added in 100 µL of media for a final volume of 200 μL. Standard solutions for each compound were prepared at 1000× concentration in DMSO. The highest concentration was 30 mM. Serial 1:1 dilutions were made from there for a 6- or 9-point curve (e.g., 30 mM, 15 mM, 7.5 mM, etc). Compounds were then diluted 1:500 in media, and 100 µL of the resulting solution was added to each well for a final dilution of 1:1000. Each concentration of compound was tested in triplicate. Cells were incubated at 37° C. with 5% CO2. After 72 hours, 20 μL of CellTiter 96 Aqueous One Solution Cell Proliferation Assay (Promega) was added to each well. Cells were placed back in the incubator, and the absorbance at 490 nm was read after 2-3 hours. The concentration of compound that decreased the number of metabolically active cells by 50% was determined and reported as the IC50. “Percent Viability” was determined by subtracting the average background value (media only) and expressed as a ratio to the average value obtained from cells treated with only DMSO.
(§2) In one embodiment, the IC50s of the compounds provided herein were determined in cell-based assays using suspension cells. In one embodiment, the activity of the compounds provided herein were determined in a cell-based assay using the JeKo-1 cell line (mantle cell lymphoma) or the Pfeiffer cell line (diffuse large B-cell lymphoma). In one embodiment, the suspension cells used in the cell-based assays may be a cell type selected from Table 2. Assays with suspension cells were similar except that 40,000-60,000 cells were added to each well and compounds were added immediately after cell plating.

[1] = test system: triple negative breast cancer cell line MDA-MB-468; experiment: IC50 cell-based assay, adherent cells, MDA-MB-468; details: Homo sapiens
Procedure: as §1
The IC50s of the compounds provided herein were determined in cell-based assay using triple negative breast cancer cell line MDA-MB-468.

MDA-MB-468 breast tumors = experiment: Tumor growth inhibition in MDA-MB-468 mouse xenograft model for breast cancer (tumor volume); assay type: in vivo; details: SCID mice
Procedure: In one embodiment, the effects of a compound provided herein on tumor growth in a mouse animal model were evaluated. In specific embodiments, the mouse animal model was the MDA-MB-468 xenograft model for breast cancer. Studies were performed to evaluate the effect of a compound provided herein on the growth of MDA-MB-468 breast tumors in mice. The test system that was used is summarized below:
Exemplary Protocol: Ten mice per group were inoculated s.c. on the left flank with 5×10^6 MDA-MB-468 cells. When tumors reached a mean volume of 100 or 200 mm^3, animals began treatment with a compound provided herein (See Table 4). Test article or vehicle were given once daily by IP injection for up to 21 days. Tumors were evaluated every Monday, Wednesday and Friday, body weights and condition were evaluated on a daily basis.
Cell Culture: MDA-MB-468 breast cancer cells were grown in Liebowitz's L-15 with 10% fetal bovine serum and 1% pen/strep. Cells were routinely trypsinized and passaged 1:4. On the day of implantation, cells were washed in PBS, trypsinized and resuspended in complete media. Cells were washed 3× in serum free media (centrifuged 1000 rpm for 5 min). Cells were resuspended to a density of 1×10^8 cells/mL and diluted 1:1 with Matrigel. Cells were implanted s.c. using a 23 G needle in a volume of 0.1 mL.
Tumor Measurement: Tumors were monitored daily. If, during a daily evaluation, an animal's tumor appeared to have exceeded 1500 mm^3, the tumor was measured; and animals with tumors greater than 1500 mm^3 and/or that had become necrotic and/or hindered movement were euthanized. Tumors were measured twice weekly by measuring each tumor in 2 dimensions, along the largest dimension (length, L) and perpendicular to this dimension (width, W). Tumor weights were calculated using the standard formula: (L×W^2)/2. The mean tumor weight and standard error of the mean were calculated for each group at each time point. An ANOVA was used to compare differences of primary tumor volume.
Compound 1 was dosed in mice at a dose of, for example, qd 50 mg/kg, for 22 days or more.
Compound 2 was dosed in mice at a dose of, for example, qd 20 mg/kg from day 0 to 7, then qd 10 mg/kg from day 8 and thereafter, for 22 days or more.

SKBR-3 = experiment: IC50 cell-based assay, adherent cells, SKBR-3; details: Homo sapiens, SK-BR-3, Breast, ER−, 72 hours, read-out: IC50 of Compounds in Adherent Cell Types
Procedure: as §1

Caki-1 = experiment: IC50 cell-based assay, adherent cells, Caki-1; details: Homo sapiens, Kidney, clear cell carc., skin met, 72 hours, read-out: IC50 of Compounds in Adherent Cell Types
Procedure: as §1

AsPC-1 = experiment: IC50 cell-based assay, adherent cells, AsPC-1; details: Homo sapiens, ASPC1, Pancreas, carcinoma, 72 hours, read-out: IC50 of Compounds in Adherent Cell Types
Procedure: as §1

OVCAR-3 = experiment: IC50 cell-based assay, adherent cells, OVCAR-3; details: Homo sapiens, Ovarian, adenocarcinoma, 72 hours, read-out: IC50 of Compounds in Adherent Cell Types
Procedure: as §1

A431 = experiment: IC50 cell-based assay, adherent cells, A431; details: Homo sapiens, A-431, Skin, epidermoid carcinoma, 72 hours, read-out: IC50 of Compounds in Adherent Cell Types
Procedure: as §1

RT-4 = experiment: IC50 cell-based assay, adherent cells, RT-4; details: Homo sapiens, Bladder, papilloma, 72 hours, read-out: IC50 of Compounds in Adherent Cell Types
Procedure: as §1

HL-60 = experiment: IC50 cell-based assay, suspension cells, HL-60; details: Homo sapiens, Leukemia, AML, read-out: IC50 of Compounds in Suspension Cell Types
Procedure: as §1, §2

SK-MEL-28 = experiment: IC50 cell-based assay, adherent cells, SK-MEL-28; details: Homo sapiens, Melanoma, 72 hours, read-out: IC50 of Compounds in Adherent Cell Types
Procedure: as §1

[2] = MDA-MB-468, Breast, triple neg, 72 hours, Table 1, read-out: IC50 of Compounds in Adherent Cell Types
[3] = MDA-MB-468 cells, Table 3, read-out: IC50 of Compounds in MDA-MB-468 Cells

Row | IC50 (Nalm-6-VR) [µM] | IC50 [1, 2] [µM] | IC50 [1, 3] [µM] | IC50 (SKBR-3) [µM] | IC50 (Caki-1) [µM] | IC50 (AsPC-1) [µM] | IC50 (OVCAR-3) [µM] | IC50 (A431) [µM] | IC50 (RT-4) [µM] | IC50 (HL-60) [µM] | IC50 (SK-MEL-28) [µM] | Compound | other results
1 | < 5 | < 5 | 1.5 | < 5 | > 20 | < 5 | < 5 | < 5 | 10 to 20 | < 5 | < 5 | O=C(Nc1cc(C(F)(F)F)cc(C(F)(F)F)c1)c1cc(-c2ccccc2)oc1C(F)(F)F [Compound 1, 5-Phenyl-2-trifluoromethyl-furan-3-carboxylic acid (3,5-bis-trifluoromethyl-phenyl)-amide] | Tumor Volumes in Control and Treated Animals, mean (MDA-MB-468 breast tumors; Day 1, qd 50 mg/kg IP): 112.66 mm^3; Tumor Volumes in Control and Treated Animals, mean (MDA-MB-468 breast tumors; Day 3, qd 50 mg/kg IP): 101.41 mm^3; Tumor Volumes in Control and Treated Animals, mean (MDA-MB-468 breast tumors; Day 5, qd 50 mg/kg IP): 91.44 mm^3; Tumor Volumes in Control and Treated Animals, mean (MDA-MB-468 breast tumors; Day 8, qd 50 mg/kg IP): 146.58 mm^3; Tumor Volumes in Control and Treated Animals, mean (MDA-MB-468 breast tumors; Day 10, qd 50 mg/kg IP): 175.96 mm^3; Tumor Volumes in Control and Treated Animals, mean (MDA-MB-468 breast tumors; Day 12, qd 50 mg/kg IP): 226.90 mm^3; Tumor Volumes in Control and Treated Animals, mean (MDA-MB-468 breast tumors; Day 15, qd 50 mg/kg IP): 276.23 mm^3; Tumor Volumes in Control and Treated Animals, mean (MDA-MB-468 breast tumors; Day 17, qd 50 mg/kg IP): 336.22 mm^3; Tumor Volumes in Control and Treated Animals, mean (MDA-MB-468 breast tumors; Day 19, qd 50 mg/kg IP): 366.60 mm^3; Tumor Volumes in Control and Treated Animals, mean (MDA-MB-468 breast tumors; Day 22, qd 50 mg/kg IP): 383.38 mm^3
2 | < 5 | < 5 | 1.5 | < 5 | 5 to 10 | 5 to 10 | 5 to 10 | < 5 | > 20 | < 5 | 5 to 10 | O=C(Nc1cc(C(F)(F)F)cc(C(F)(F)F)c1)c1cc(-c2ccc(Cl)cc2)oc1C(F)(F)F [Compound 2, 5-(4-Chlorophenyl)-N-(3,5-bistrifluoromethylphenyl)-2-trifluoromethylfuran-3-carboxamide] | Tumor Volumes in Control and Treated Animals, mean (MDA-MB-468 breast tumors; Day 1, qd 20 mg/kg days 0 to 7, then qd 10 mg/kg day 8 and thereafter, IP): 119.09 mm^3; Tumor Volumes in Control and Treated Animals, mean (MDA-MB-468 breast tumors; Day 3, qd 20 mg/kg days 0 to 7, then qd 10 mg/kg day 8 and thereafter, IP): 103.39 mm^3; Tumor Volumes in Control and Treated Animals, mean (MDA-MB-468 breast tumors; Day 5, qd 20 mg/kg days 0 to 7, then qd 10 mg/kg day 8 and thereafter, IP): 119.30 mm^3; Tumor Volumes in Control and Treated Animals, mean (MDA-MB-468 breast tumors; Day 8, qd 20 mg/kg days 0 to 7, then qd 10 mg/kg day 8 and thereafter, IP): 139.19 mm^3; Tumor Volumes in Control and Treated Animals, mean (MDA-MB-468 breast tumors; Day 10, qd 20 mg/kg days 0 to 7, then qd 10 mg/kg day 8 and thereafter, IP): 181.97 mm^3; Tumor Volumes in Control and Treated Animals, mean (MDA-MB-468 breast tumors; Day 12, qd 20 mg/kg days 0 to 7, then qd 10 mg/kg day 8 and thereafter, IP): 234.51 mm^3; Tumor Volumes in Control and Treated Animals, mean (MDA-MB-468 breast tumors; Day 15, qd 20 mg/kg days 0 to 7, then qd 10 mg/kg day 8 and thereafter, IP): 276.34 mm^3; Tumor Volumes in Control and Treated Animals, mean (MDA-MB-468 breast tumors; Day 17, qd 20 mg/kg days 0 to 7, then qd 10 mg/kg day 8 and thereafter, IP): 311.15 mm^3; Tumor Volumes in Control and Treated Animals, mean (MDA-MB-468 breast tumors; Day 19, qd 20 mg/kg days 0 to 7, then qd 10 mg/kg day 8 and thereafter, IP): 318.18 mm^3; Tumor Volumes in Control and Treated Animals, mean (MDA-MB-468 breast tumors; Day 22, qd 20 mg/kg days 0 to 7, then qd 10 mg/kg day 8 and thereafter, IP): 356.43 mm^3

Reference: patent US8722731B2, “Furanyl compounds and the use thereof” (NovoMedix, LLC, priority 2010, dated 2014)
